Assay results: patent publication US20070293399A1, “SUBSTITUTED DIAMINO-1,3,5-TRIAZINES, PROCESSES FOR THEIR PREPARATION AND THEIR USE AS HERBICIDES AND CROP GROWTH REGULATORS” (Bayer CropScience AG, priority 2006, published 2007)

Columns and labels:
[1] = test system: Stellaria media, Lolium multiflorum, Amaranthus retroflexus, Sinapis alba, Avena sativa and Setaria viridis; assay: Pre-emergence herbicidal action (greenhouse pot test); format: in vivo; details: application rate of 1 kg or less of active substance per hectare; scored visually after 3 to 4 weeks in comparison to untreated controls
Text: Seeds or rhizome pieces of mono- and dicotyledonous weed plants were placed in sandy loam in plastic pots and covered with soil. The inventive compounds, which have been formulated in the form of wettable powders or emulsion concentrates, were then applied to the surface of the covering soil as an aqueous suspension or emulsion in different dosages with an application rate of from 600 to 800 l/ha of water (converted).

[2] = test system: Sinapis alba, Echinochloa crus-galli, Lolium multiflorum, Stellaria media, Cyperus iria, Amaranthus retroflexus, Setaria viridis, Avena sativa, Lamium …; assay: Post-emergence herbicidal action (greenhouse pot test); format: in vivo; details: application rate of 1 kg and less of active substance per hectare; treated at three-leaf stage; scored visually after approx. 3 to 4 weeks in comparison to untreated controls
Protocol: Seeds or rhizome pieces of mono- and dicotyledonous weeds were placed in sandy loam in plastic pots, covered with soil and grown in a greenhouse under good growth conditions. Three weeks after the sowing, the test plants were treated at the three-leaf stage. The inventive compounds formulated as spray powders or as emulsion concentrates were sprayed onto the green plant parts in various dosages with an application rate of from 600 to 800 l/ha of water (converted). After the test plants had been left to stand in the greenhouse under optimal growth conditions for approx. 3 to 4 weeks, the action of the preparations was scored visually in comparison to untreated controls. The inventive compositions also had good post-emergence herbicidal activity against a wide spectrum of economically important gramineous and broadleaf weeds.

With `CC(=O)Nc1ncnc(NC2c3cc(F)ccc3CC2C)n1` (racemic) [Compound 1.1] the “herbicidal action against harmful plants in the pre-emergence method” value (“herbicidal action … in the pre-emergence method” below) [1] was “very good herbicidal action” and the “herbicidal action against harmful plants in the post-emergence method” value (“herbicidal action … in the post-emergence method” for short) [2] was “very good herbicidal action”.

`CC1Cc2ccc(F)cc2C1Nc1ncnc(NC(=O)C(Cl)(Cl)Cl)n1` (racemic) [Compound 1.2] was tested, and the “herbicidal action … in the pre-emergence method” value [1] was “very good herbicidal action” and the “herbicidal action … in the post-emergence method” value [2] was “very good herbicidal action”.

`CC1Cc2ccc(F)cc2C1Nc1ncnc(NC(=O)C(F)(F)F)n1` (racemic) [Compound 1.3] was tested, and the “herbicidal action … in the pre-emergence method” value [1] was “very good herbicidal action” and the “herbicidal action … in the post-emergence method” value [2] was “very good herbicidal action”.

`CC1Cc2ccc(F)cc2C1Nc1ncnc(NC(=O)CCl)n1` (racemic) [Compound 1.4] was tested, and the “herbicidal action … in the pre-emergence method” value [1] was “very good herbicidal action” and the “herbicidal action … in the post-emergence method” value [2] was “very good herbicidal action”.

In the case of `CCC(=O)Nc1ncnc(NC2c3cc(F)ccc3CC2C)n1` (racemic) [Compound 1.5], the “herbicidal action … in the pre-emergence method” value [1] is reported as “very good herbicidal action” and the “herbicidal action … in the post-emergence method” value [2] is reported as “very good herbicidal action”.

In the case of `COC(=O)Nc1nc(CF)nc(NC2c3cc(F)ccc3CC2C)n1` (racemic) [Compound 1.11], the “herbicidal action … in the pre-emergence method” value [1] is reported as “very good herbicidal action” and the “herbicidal action … in the post-emergence method” value [2] is reported as “very good herbicidal action”.

For `CCC(=O)Nc1nc(CF)nc(NC2c3cc(F)ccc3CC2C)n1` (racemic) [Compound 1.12], the “herbicidal action … in the pre-emergence method” value [1] was “very good herbicidal action” and the “herbicidal action … in the post-emergence method” value [2] was “very good herbicidal action”.

In the case of `CC1Cc2ccc(F)cc2C1Nc1nc(CF)nc(NC(=O)C(F)(F)F)n1` (racemic) [Compound 1.13], the “herbicidal action … in the pre-emergence method” value [1] is reported as “very good herbicidal action” and the “herbicidal action … in the post-emergence method” value [2] is reported as “very good herbicidal action”.

In the case of `CC1Cc2ccc(F)cc2C1Nc1nc(CF)nc(NC(=O)C(Cl)(Cl)Cl)n1` (racemic) [Compound 1.14], the “herbicidal action … in the pre-emergence method” value [1] is reported as “very good herbicidal action” and the “herbicidal action … in the post-emergence method” value [2] is reported as “very good herbicidal action”.

For `CC(=O)Nc1nc(NC2CCOc3c(C)cc(F)cc32)nc(C2CC2)n1` (racemic) [Compound 1.31], the “herbicidal action … in the pre-emergence method” value [1] was “very good herbicidal action” and the “herbicidal action … in the post-emergence method” value [2] was “very good herbicidal action”.

For `COCc1nc(NC(C)=O)nc(NC2CCc3ccccc32)n1` (racemic) [Compound 1.32], the “herbicidal action … in the pre-emergence method” value [1] was “very good herbicidal action” and the “herbicidal action … in the post-emergence method” value [2] was “very good herbicidal action”.

`CC(=O)Nc1nc(NC2CCOc3c(C)cc(F)cc32)nc(C(C)Cc2ccc(F)cc2)n1` (racemic) [Compound 1.33] was tested, and the “herbicidal action … in the pre-emergence method” value [1] was “very good herbicidal action” and the “herbicidal action … in the post-emergence method” value [2] was “very good herbicidal action”.

`CCC(=O)Nc1nc(NC2CCOc3c(C)cc(F)cc32)nc(C(C)Cc2ccc(F)cc2)n1` (racemic) [Compound 1.38] was tested, and the “herbicidal action … in the pre-emergence method” value [1] was “very good herbicidal action” and the “herbicidal action … in the post-emergence method” value [2] was “very good herbicidal action”.

With `COCc1nc(NC(C)=O)nc(NC2CCCc3c(C)cc(C)cc32)n1` (racemic) [Compound 1.39] the “herbicidal action … in the pre-emergence method” value [1] was “very good herbicidal action” and the “herbicidal action … in the post-emergence method” value [2] was “very good herbicidal action”.

In the case of `CC(=O)Nc1ncnc(NC2c3cccc(C)c3CC2C)n1` (racemic) [Compound 1.46], the “herbicidal action … in the pre-emergence method” value [1] is reported as “very good herbicidal action” and the “herbicidal action … in the post-emergence method” value [2] is reported as “very good herbicidal action”.

For `CC(=O)Nc1ncnc(NC2CCOc3ccc(C)cc32)n1` (racemic) [Compound 1.47], the “herbicidal action … in the pre-emergence method” value [1] was “very good herbicidal action” and the “herbicidal action … in the post-emergence method” value [2] was “very good herbicidal action”.

For `Cc1ccc2c(c1)C(Nc1nc(NC(=O)C(Cl)(Cl)Cl)nc(C(C)F)n1)CCO2` (racemic) [Compound 1.51], the “herbicidal action … in the pre-emergence method” value [1] was “very good herbicidal action” and the “herbicidal action … in the post-emergence method” value [2] was “very good herbicidal action”.

With `Cc1ccc2c(c1C)OCCC2Nc1nc(NC(=O)C2CC2)nc(C2CC2)n1` (racemic) [Compound 1.70] the “herbicidal action … in the pre-emergence method” value [1] was “very good herbicidal action” and the “herbicidal action … in the post-emergence method” value [2] was “very good herbicidal action”.

In the case of `CC(=O)Nc1ncnc(N[C@@H]2CCCc3ccccc32)n1` [Compound 2.1, N1-{4-[(1R)-1,2,3,4-Tetrahydro-1-naphthylamino]-1,3,5-triazin-2-yl}acetamide], the “herbicidal action … in the pre-emergence method” value [1] is reported as “very good herbicidal action” and the “herbicidal action … in the post-emergence method” value [2] is reported as “very good herbicidal action”.

In the case of `CCC(=O)Nc1ncnc(N[C@@H]2CCCc3ccccc32)n1` [Compound 2.2], the “herbicidal action … in the pre-emergence method” value [1] is reported as “very good herbicidal action” and the “herbicidal action … in the post-emergence method” value [2] is reported as “very good herbicidal action”.

`CC(=O)Nc1ncnc(N[C@H]2c3cc(C)ccc3C[C@@H]2C)n1` [Compound 2.9] was tested, and the “herbicidal action … in the pre-emergence method” value [1] was “very good herbicidal action” and the “herbicidal action … in the post-emergence method” value [2] was “very good herbicidal action”.

With `Cc1ccc2c(c1)[C@H](Nc1ncnc(NC(=O)C(F)(F)F)n1)[C@@H](C)C2` [Compound 2.12, N-(4-{[(1R,2S)-2,6-Dimethyl-2,3-dihydro-1H-inden-1-yl]-amino}-1,3,5-triazin-2-yl)-2,2,2-trifluoroacetamide] the “herbicidal action … in the pre-emergence method” value [1] was “very good herbicidal action” and the “herbicidal action … in the post-emergence method” value [2] was “very good herbicidal action”.

`CC(=O)Nc1nc(N[C@H]2c3cc(C)ccc3C[C@@H]2C)nc([C@@H](C)F)n1` [Compound 2.13] was tested, and the “herbicidal action … in the pre-emergence method” value [1] was “very good herbicidal action” and the “herbicidal action … in the post-emergence method” value [2] was “very good herbicidal action”.

`CCC(=O)Nc1nc(N[C@H]2c3cc(C)ccc3C[C@@H]2C)nc([C@@H](C)F)n1` [Compound 2.14] was tested, and the “herbicidal action … in the pre-emergence method” value [1] was “very good herbicidal action” and the “herbicidal action … in the post-emergence method” value [2] was “very good herbicidal action”.

In the case of `Cc1ccc2c(c1)[C@H](Nc1nc(NC(=O)C(F)(F)F)nc([C@@H](C)F)n1)[C@@H](C)C2` [Compound 2.26], the “herbicidal action … in the pre-emergence method” value [1] is reported as “very good herbicidal action” and the “herbicidal action … in the post-emergence method” value [2] is reported as “very good herbicidal action”.
